Experimental data from ChEMBL document CHEMBL5143663 (Bioorg Med Chem Lett, 2022).

What follows are compounds tested against T1, Tyrosine-protein kinase JAK2 (Homo sapiens, UniProt O60674) (assay: Inhibition of human JAK2 kinase domain at 100 nM relative to control).
T1 sequence (O60674 whole entry, the tested form may be a part): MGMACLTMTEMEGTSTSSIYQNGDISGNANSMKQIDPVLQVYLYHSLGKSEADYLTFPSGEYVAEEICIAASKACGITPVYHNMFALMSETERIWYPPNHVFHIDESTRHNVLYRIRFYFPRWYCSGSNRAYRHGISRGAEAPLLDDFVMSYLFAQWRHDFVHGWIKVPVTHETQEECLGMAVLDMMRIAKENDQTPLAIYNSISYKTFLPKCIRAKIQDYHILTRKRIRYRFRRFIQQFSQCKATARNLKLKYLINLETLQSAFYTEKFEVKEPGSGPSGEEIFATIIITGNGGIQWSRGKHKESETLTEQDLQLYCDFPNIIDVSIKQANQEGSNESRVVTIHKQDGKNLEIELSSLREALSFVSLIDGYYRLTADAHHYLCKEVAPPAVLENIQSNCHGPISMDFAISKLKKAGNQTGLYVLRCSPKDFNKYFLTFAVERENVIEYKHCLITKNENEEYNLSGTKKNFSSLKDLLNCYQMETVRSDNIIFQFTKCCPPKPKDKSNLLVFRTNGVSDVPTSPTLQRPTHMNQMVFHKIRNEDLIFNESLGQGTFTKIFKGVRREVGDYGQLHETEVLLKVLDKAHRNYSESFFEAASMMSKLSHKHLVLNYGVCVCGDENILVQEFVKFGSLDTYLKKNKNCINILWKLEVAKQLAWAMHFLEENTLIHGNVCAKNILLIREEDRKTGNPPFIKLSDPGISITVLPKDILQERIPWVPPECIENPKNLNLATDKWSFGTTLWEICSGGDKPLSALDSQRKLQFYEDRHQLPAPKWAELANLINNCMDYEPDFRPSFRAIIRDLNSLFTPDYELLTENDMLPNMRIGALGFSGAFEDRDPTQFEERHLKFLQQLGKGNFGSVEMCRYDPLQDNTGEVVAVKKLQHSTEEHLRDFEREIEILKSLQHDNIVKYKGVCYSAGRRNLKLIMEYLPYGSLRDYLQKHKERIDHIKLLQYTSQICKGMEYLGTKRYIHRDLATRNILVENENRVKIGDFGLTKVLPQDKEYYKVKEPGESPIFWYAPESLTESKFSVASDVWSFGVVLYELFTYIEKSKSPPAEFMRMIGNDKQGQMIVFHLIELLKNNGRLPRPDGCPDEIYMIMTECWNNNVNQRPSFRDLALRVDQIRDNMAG

With `N#CCNC(=O)c1ccc(-c2ccnc(Nc3ccc(N4CC5CC(C4)O5)cc3)n2)cc1` as the compound, how does the inhibition read?
The inhibition was 77%.

For `N#CCNC(=O)c1ccc(-c2ccnc(Nc3ccc(N4CC5OCCOC5C4)cc3)n2)cc1` (configuration not stated), which inhibition is on record?
Its inhibition is 68%.

With `Cc1nc2c(s1)CN(c1ccc(Nc3nccc(-c4ccc(C(=O)NCC#N)cc4)n3)cc1)CC2` as the compound, how does the inhibition read?
Its inhibition is 70%.

These compounds were tested against T2, Tyrosine-protein kinase JAK3 (Homo sapiens) (UniProt P52333) (assay: Inhibition of human JAK3 kinase domain at 100 nM relative to control).
T2 sequence (whole entry): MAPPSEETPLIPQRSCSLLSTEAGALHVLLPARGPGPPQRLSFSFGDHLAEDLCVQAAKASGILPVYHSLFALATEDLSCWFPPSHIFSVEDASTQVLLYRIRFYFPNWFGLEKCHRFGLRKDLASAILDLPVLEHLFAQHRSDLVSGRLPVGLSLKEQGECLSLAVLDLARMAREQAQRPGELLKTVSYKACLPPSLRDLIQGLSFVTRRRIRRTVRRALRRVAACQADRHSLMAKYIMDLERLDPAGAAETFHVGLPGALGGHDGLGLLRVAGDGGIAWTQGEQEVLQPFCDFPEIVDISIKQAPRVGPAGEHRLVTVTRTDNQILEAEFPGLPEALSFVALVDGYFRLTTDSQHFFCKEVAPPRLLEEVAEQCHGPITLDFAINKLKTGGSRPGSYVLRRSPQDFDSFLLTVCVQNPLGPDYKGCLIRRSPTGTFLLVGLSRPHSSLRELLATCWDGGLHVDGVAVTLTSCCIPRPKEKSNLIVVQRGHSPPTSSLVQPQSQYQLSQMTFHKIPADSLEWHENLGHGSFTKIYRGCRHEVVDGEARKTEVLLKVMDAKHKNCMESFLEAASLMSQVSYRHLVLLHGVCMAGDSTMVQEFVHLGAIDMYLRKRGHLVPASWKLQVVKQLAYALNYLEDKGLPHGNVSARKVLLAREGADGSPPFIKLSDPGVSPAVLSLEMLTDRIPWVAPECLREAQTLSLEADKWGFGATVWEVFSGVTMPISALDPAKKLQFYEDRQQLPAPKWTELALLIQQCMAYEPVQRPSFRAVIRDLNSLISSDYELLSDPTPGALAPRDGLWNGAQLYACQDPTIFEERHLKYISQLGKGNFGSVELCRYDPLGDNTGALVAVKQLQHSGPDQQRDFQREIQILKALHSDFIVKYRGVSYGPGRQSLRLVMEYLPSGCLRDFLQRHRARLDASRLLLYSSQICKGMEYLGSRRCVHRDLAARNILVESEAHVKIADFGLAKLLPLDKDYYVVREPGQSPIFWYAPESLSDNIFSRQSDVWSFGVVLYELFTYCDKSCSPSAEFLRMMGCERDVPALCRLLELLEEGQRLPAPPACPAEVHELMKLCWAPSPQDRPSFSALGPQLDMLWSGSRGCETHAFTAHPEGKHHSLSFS

With `N#CCNC(=O)c1ccc(-c2ccnc(Nc3ccc(N4CC5CC(C4)O5)cc3)n2)cc1` as the compound, how does the inhibition read?
Its inhibition is 39%.

How did the inhibition turn out when `N#CCNC(=O)c1ccc(-c2ccnc(Nc3ccc(N4CC5OCCOC5C4)cc3)n2)cc1` (configuration not stated) was run?
The inhibition was 26%.

`Cc1nc2c(s1)CN(c1ccc(Nc3nccc(-c4ccc(C(=O)NCC#N)cc4)n3)cc1)CC2` was tested. Which inhibition did it give?
The inhibition was 31%.

What follows are compounds tested against T3, Tyrosine-protein kinase JAK1 (Homo sapiens, UniProt P23458) (assay: Inhibition of human JAK1 kinase domain at 100 nM relative to control).
T3 sequence (P23458 whole entry, the tested form may be a part): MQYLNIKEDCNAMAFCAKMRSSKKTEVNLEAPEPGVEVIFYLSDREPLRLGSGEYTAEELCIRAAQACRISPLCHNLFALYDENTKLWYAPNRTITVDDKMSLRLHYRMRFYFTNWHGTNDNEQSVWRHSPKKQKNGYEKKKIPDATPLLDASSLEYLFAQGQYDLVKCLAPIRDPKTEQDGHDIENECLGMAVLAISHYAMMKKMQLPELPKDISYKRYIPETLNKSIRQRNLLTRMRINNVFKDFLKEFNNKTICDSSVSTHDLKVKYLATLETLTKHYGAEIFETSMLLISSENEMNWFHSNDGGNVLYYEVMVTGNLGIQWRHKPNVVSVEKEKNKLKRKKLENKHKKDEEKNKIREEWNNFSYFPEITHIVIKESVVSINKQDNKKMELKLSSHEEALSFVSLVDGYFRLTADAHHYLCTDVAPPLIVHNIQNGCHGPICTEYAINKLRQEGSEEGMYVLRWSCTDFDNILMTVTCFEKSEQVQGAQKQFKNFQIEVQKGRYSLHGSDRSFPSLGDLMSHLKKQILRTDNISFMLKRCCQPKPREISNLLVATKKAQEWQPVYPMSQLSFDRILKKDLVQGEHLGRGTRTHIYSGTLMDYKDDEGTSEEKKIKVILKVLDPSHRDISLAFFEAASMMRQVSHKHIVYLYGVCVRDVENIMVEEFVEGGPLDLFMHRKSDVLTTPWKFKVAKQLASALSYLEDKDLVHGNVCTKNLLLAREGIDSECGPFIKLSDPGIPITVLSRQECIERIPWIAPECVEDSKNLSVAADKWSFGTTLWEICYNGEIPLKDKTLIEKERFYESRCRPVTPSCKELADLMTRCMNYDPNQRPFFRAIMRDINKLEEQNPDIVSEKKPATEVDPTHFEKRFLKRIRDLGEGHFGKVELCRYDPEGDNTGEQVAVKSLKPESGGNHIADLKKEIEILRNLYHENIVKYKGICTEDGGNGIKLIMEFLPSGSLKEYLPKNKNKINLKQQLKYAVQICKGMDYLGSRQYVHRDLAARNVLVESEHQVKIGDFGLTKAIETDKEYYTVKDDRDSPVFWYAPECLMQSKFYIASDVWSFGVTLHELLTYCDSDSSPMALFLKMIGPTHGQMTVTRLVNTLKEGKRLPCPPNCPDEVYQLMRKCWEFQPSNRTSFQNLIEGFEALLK

Which inhibition does the source give for `N#CCNC(=O)c1ccc(-c2ccnc(Nc3ccc(N4CC5CC(C4)O5)cc3)n2)cc1` here?
Its inhibition is 75%.

For `N#CCNC(=O)c1ccc(-c2ccnc(Nc3ccc(N4CC5OCCOC5C4)cc3)n2)cc1` (configuration not stated), which inhibition is on record?
The inhibition was 58%.

With `Cc1nc2c(s1)CN(c1ccc(Nc3nccc(-c4ccc(C(=O)NCC#N)cc4)n3)cc1)CC2` as the compound, how does the inhibition read?
The inhibition was 69%.

What follows are compounds tested against T3, Tyrosine-protein kinase JAK1 (assay: Inhibition of human JAK1 kinase domain at 10 nM relative to control).

With `N#CCNC(=O)c1ccc(-c2ccnc(Nc3ccc(N4CC5CC(C4)O5)cc3)n2)cc1` as the compound, how does the inhibition read?
Its inhibition is 34%.

How did the inhibition turn out when `N#CCNC(=O)c1ccc(-c2ccnc(Nc3ccc(N4CC5OCCOC5C4)cc3)n2)cc1` (configuration not stated) was run?
The inhibition was 20%.

With `Cc1nc2c(s1)CN(c1ccc(Nc3nccc(-c4ccc(C(=O)NCC#N)cc4)n3)cc1)CC2` as the compound, how does the inhibition read?
The inhibition was 11%.

Each compound was assayed against T1, Tyrosine-protein kinase JAK2 (assay: Inhibition of human JAK2 kinase domain at 10 nM relative to control).

`N#CCNC(=O)c1ccc(-c2ccnc(Nc3ccc(N4CC5CC(C4)O5)cc3)n2)cc1` was tested. Which inhibition did it give?
Its inhibition is 21%.

How did the inhibition turn out when `N#CCNC(=O)c1ccc(-c2ccnc(Nc3ccc(N4CC5OCCOC5C4)cc3)n2)cc1` (configuration not stated) was run?
The inhibition was 13%.

For `Cc1nc2c(s1)CN(c1ccc(Nc3nccc(-c4ccc(C(=O)NCC#N)cc4)n3)cc1)CC2`, which inhibition is on record?
Its inhibition is 13%.

What follows are compounds tested against T2, Tyrosine-protein kinase JAK3 (Homo sapiens) (assay: Inhibition of human JAK3 kinase domain at 10 nM relative to control).

Which inhibition does the source give for `N#CCNC(=O)c1ccc(-c2ccnc(Nc3ccc(N4CC5CC(C4)O5)cc3)n2)cc1` here?
Its inhibition is 2%.

How did the inhibition turn out when `N#CCNC(=O)c1ccc(-c2ccnc(Nc3ccc(N4CC5OCCOC5C4)cc3)n2)cc1` (configuration not stated) was run?
Its inhibition is 11%.
